Experimental data reported in patent publication US20260266848A1, “COMPOSITIONS AND METHODS FOR DIAGNOSING AND TREATING DYSTONIA” (Duke University, priority 2023, published 2026).

Legend:
WT MEF EVs = experiment: Quantitative LC-MS/MS proteomics of EVs from ISRIB-treated WT MEF cultures; assay type: cell-based, mouse; set-up: key to ISRIB and DYT Parallel Direction / ISRIB and DYT Parallel Direction, Ctdsp1 / ISRIB and DYT Parallel Direction, Pcdh19 / ISRIB and DYT Parallel Direction, Tspan7 / ISRIB and DYT Parallel Direction, Myo1e / ISRIB and DYT Parallel Direction, Plpp3 / ISRIB and DYT Parallel Direction, Sh3bp4 / ISRIB and DYT Parallel Direction, Dnajc7 / ISRIB and DYT Parallel Direction, Drg1 / ISRIB and DYT Parallel Direction, Maea: YES = protein abundance effect similar to DYT/WT; conditions: EV protein abundance; for WT + ISRIB/WT Cohen's d: ISRIB-treated WT vs WT; for ISRIB and DYT Parallel Direction: WT + ISRIB vs WT, direction compared with DYT/WT
DYT-TOR1A MEF EVs = experiment: Quantitative LC-MS/MS proteomics of EVs from drug-treated DYT-TOR1A MEF cultures (ritonavir, salubrinal); assay type: cell-based, mouse; set-up: key to RTV Corrective Direction / RTV Corrective Direction, Grwd1 / RTV Corrective Direction, Srrm2 / RTV Corrective Direction, Rbm17 / RTV Corrective Direction, Dcaf8 / RTV Corrective Direction, Edil3 / RTV Corrective Direction, Timp3 / RTV Corrective Direction, Heatr3 / RTV Corrective Direction, Brd4 / RTV Corrective Direction, P3h4 / RTV Corrective Direction, Pacsin3 / RTV Corrective Direction, Naa50 / RTV Corrective Direction, Lpar6 / RTV Corrective Direction, Ndrg1 / RTV Corrective Direction, Kntc1 / RTV Corrective Direction, Cdk11b / RTV Corrective Direction, Sumo1 / RTV Corrective Direction, Lsm4 / RTV Corrective Direction, Hmga2 / RTV Corrective Direction, Cstf1 / RTV Corrective Direction, Tes / RTV Corrective Direction, Sbno1 / RTV Corrective Direction, Unc119b / RTV Corrective Direction, Cfdp1 / RTV Corrective Direction, Sec61b: YES = protein abundance effect opposite to DYT/WT; conditions: EV protein abundance; for RTV Corrective Direction: DYT + RTV (ritonavir) vs DYT, direction compared with DYT/WT; for DYT + RTV/DYT Cohen's d: ritonavir (RTV)-treated DYT vs DYT

Substance | WT + ISRIB/WT Cohen's d (WT MEF EVs) | ISRIB and DYT Parallel Direction (WT MEF EVs) | RTV Corrective Direction (DYT-TOR1A MEF EVs) | DYT + RTV/DYT Cohen's d (DYT-TOR1A MEF EVs)
Cnot1 | −2.56 | YES | YES | 5.54
Col5a1 | 0.06 | YES | YES | −0.89
